Experimental data from the supplement of paper PMC11451515.

System: P12-Ichikawa
Assay: cell viability relative to DMSO control; higher = less cytotoxic
Conditions: 48 h
In short: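 Cells were incubated for 48 h at 37°C before CellTiter-Glo One luminescence was read. The cells were NOMO1 or SEM (500 cells/well) or P12-Ichikawa (1000 cells/well) leukemia cells, adapted for at least four passages in each medium and seeded in 1536-well plates (5 μl). Dosing used library compounds in DMSO applied by pin over 11 threefold points, 47 μM to 0.79 nM. Viability is the per-plate percentage of DMSO wells, with cell-free wells as background.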

[1] = HPLM + 10% dialyzed FBS, 0.000781 µM
[2] = HPLM + 10% dialyzed FBS, 0.00234 µM
[3] = HPLM + 10% dialyzed FBS, 0.00702 µM
[4] = HPLM + 10% dialyzed FBS, 0.0211 µM
[5] = HPLM + 10% dialyzed FBS, 0.0632 µM
[6] = HPLM + 10% dialyzed FBS, 0.19 µM
[7] = HPLM + 10% dialyzed FBS, 0.569 µM
[8] = HPLM + 10% dialyzed FBS, 1.71 µM
[9] = HPLM + 10% dialyzed FBS, 5.12 µM
[10] = HPLM + 10% dialyzed FBS, 15.4 µM
[11] = HPLM + 10% dialyzed FBS, 46.1 µM
[12] = RPMI 5 mM glucose + 10% FBS, 0.000781 µM
[13] = RPMI 5 mM glucose + 10% FBS, 0.00234 µM
[14] = RPMI 5 mM glucose + 10% FBS, 0.00702 µM
[15] = RPMI 5 mM glucose + 10% FBS, 0.0211 µM
[16] = RPMI 5 mM glucose + 10% FBS, 0.0632 µM
[17] = RPMI 5 mM glucose + 10% FBS, 0.19 µM
[18] = RPMI 5 mM glucose + 10% FBS, 0.569 µM
[19] = RPMI 5 mM glucose + 10% FBS, 1.71 µM
[20] = RPMI 5 mM glucose + 10% FBS, 5.12 µM
[21] = RPMI 5 mM glucose + 10% FBS, 15.4 µM
[22] = RPMI 5 mM glucose + 10% FBS, 46.1 µM
[23] = RPMI 5 mM glucose + 10% dialyzed FBS, 0.000781 µM
[24] = RPMI 5 mM glucose + 10% dialyzed FBS, 0.00234 µM
[25] = RPMI 5 mM glucose + 10% dialyzed FBS, 0.00702 µM
[26] = RPMI 5 mM glucose + 10% dialyzed FBS, 0.0211 µM
[27] = RPMI 5 mM glucose + 10% dialyzed FBS, 0.0632 µM
[28] = RPMI 5 mM glucose + 10% dialyzed FBS, 0.19 µM
[29] = RPMI 5 mM glucose + 10% dialyzed FBS, 0.569 µM
[30] = RPMI 5 mM glucose + 10% dialyzed FBS, 1.71 µM
[31] = RPMI 5 mM glucose + 10% dialyzed FBS, 5.12 µM
[32] = RPMI 5 mM glucose + 10% dialyzed FBS, 15.4 µM
[33] = RPMI 5 mM glucose + 10% dialyzed FBS, 46.1 µM

Structure (SMILES)	cell viability [1] [%]	cell viability [2] [%]	cell viability [3] [%]	cell viability [4] [%]	cell viability [5] [%]	cell viability [6] [%]	cell viability [7] [%]	cell viability [8] [%]	cell viability [9] [%]	cell viability [10] [%]	cell viability [11] [%]	cell viability [12] [%]	cell viability [13] [%]	cell viability [14] [%]	cell viability [15] [%]	cell viability [16] [%]	cell viability [17] [%]	cell viability [18] [%]	cell viability [19] [%]	cell viability [20] [%]	cell viability [21] [%]	cell viability [22] [%]	cell viability [23] [%]	cell viability [24] [%]	cell viability [25] [%]	cell viability [26] [%]	cell viability [27] [%]	cell viability [28] [%]	cell viability [29] [%]	cell viability [30] [%]	cell viability [31] [%]	cell viability [32] [%]	cell viability [33] [%]
Cc1cc(OCCCc2c(C(=O)O)n(Cc3cccnc3)c3c(-c4c(COc5ccc(N6CCN([S+](C)(=O)[O-])CC6)cc5)nn(C)c4C)cccc23)cc(C)c1Cl	99.6	100	100	97	99.8	97.4	92.9	96.1	86.9	88.1	80.4	92.4	102	96.6	102	101	95.6	85.9	89.3	86.2	88.3	77.1	91.3	95	99.3	97.5	102	98.4	90.9	93.5	93.1	78.2	82.9
O=C(OC)[C@]12CC[C@@]3(C)[C@]4(C)CC[C@H]5[C@@](C)(C)C(=O)C(=C[C@]5(C)C4=CC(=O)[C@@H]3[C@@H]2C[C@](C)(C)CC1)C#N	100	100	96.3	102	104	105	99.8	97.5	99.2	2.24	2.66	92.7	96.7	97.1	90.3	109	100	107	102	97	2.4	2.78	95.8	93.3	92.3	98.3	101	108	105	90.3	90.7	2.44	2.54
CC(C)C(C)/C=C/C(C)C1CCC2C3=CC=C4CC(O)CCC4(C)C3CCC21C (centres undefined)	110	105	97.8	109	99.5	96.6	111	94.4	106	97.8	97.3	99.1	99.4	98.3	106	96.7	98.4	102	97.6	93.5	94.5	92.2	91.1	94.8	102	97.1	103	96.7	97.5	96.8	92.8	91	89.4
CC1=C(/C=C/C(C)=C/C=C/C(C)=C/C=C/C=C(C)/C=C/C=C(C)/C=C/C2=C(C)CCCC2(C)C)C(C)(C)CCC1	112	112	109	110	109	106	108	107	112	95.1	99.3	111	119	110	111	116	105	111	109	108	95.8	95.4	117	113	118	108	109	106	107	106	106	103	85.7
COC(=O)Nc1nc2cc(C(=O)c3cccs3)ccc2[nH]1	121	107	110	55.9	37	17.8	25.4	14.6	10.1	10.2	36.8	117	123	119	82	42.2	18.1	23.3	16.7	10.5	11.8	33.1	120	114	128	96.5	57.6	27.3	35	25.1	17.4	18.5	48
CC1=NN(c2ccc(C)c(C)c2)C(=O)/C1=N/Nc1cccc(-c2cccc(C(=O)O)c2)c1O	120	120	129	124	116	127	121	118	112	91.1	68.1	–	–	–	–	–	–	–	–	–	–	–	–	–	–	–	–	–	–	–	–	–	–
NC[C@H]1CC[C@H](C(=O)O)CC1	–	–	–	–	–	–	–	–	–	–	–	15	141	125	134	139	123	136	129	132	128	121	–	–	–	–	–	–	–	–	–	–	–
ClC1=C(N\C2=N\CCN2)C3=NSN=C3C=C1	106	117	122	130	119	117	119	115	120	127	124	–	–	–	–	–	–	–	–	–	–	–	107	115	114	127	124	116	129	115	124	120	127
